Laboratory results reported in patent US8637462B2, “Methods for reducing platelet counts and/or platelet adhesion by administering a GC-B receptor agonist” (Mayo Foundation for Medical Education and Research, priority 2011, dated 2014).
Entries after “also recorded” stand apart in the source; their conditions may differ.

Experiments:
tubulin [1] = experiment: Platelet spreading assay, tubulin staining; format: cell-based; settings: FIG. 10
Description: (§1) To confirm these findings, tubulin and actin also were stained on platelets that were viable and functionally active using a spreading assay.

actin = experiment: Platelet spreading assay, actin staining; format: cell-based; settings: FIG. 10
Method: (§2) The following was performed to determine if CNP could affect cytoskeletal proteins such as tubulin and/or actin. To delineate this function of CNP, human platelets were either treated with the Lbab polypeptide or CNP and were placed on slides using cytospin Immunocytochemistry was performed with anti-tubulin or anti-actin antibodies.
as §1

tubulin [2] = experiment: Tubulin polymerization assay; format: biochemical; settings: nucleation, growth and steady state phases; FIG. 11
Method: To demarcate whether the effects of CNP on microtubules was direct or indirect, a microtubule polymerization assay from cytoskeleton was utilized as per manufacturer's protocol. The assay studied all three phases of microtubule formation, namely nucleation, growth, and steady state equilibrium.
A 96-well plate was warmed in the incubator to 37° C. for 10 minutes. During this time, 10× stock solutions of compounds to be tested were prepared. 5 μL of control buffer, 5 μL of the 10× paclitaxel stock, and 5 μL of the 10× test compound were added to their respective wells. Next, the 96 well plate was placed back into warm plate reader for 1 minute. Finally, 50 μL of the tubulin reaction mix was added to each of the wells as quickly as possible, and the plate reader was started.

[3] = tested on: GC-B present on megakaryocytes; experiment: cGMP production in megakaryocytes (BIOTRAK cGMP enzyme immunoassay); format: cell-based, mouse; settings: 30 minutes at 37° C.; FIG. 3
Chain of GC-B present on megakaryocytes (Q6VVW5 23-1047 limits assumed): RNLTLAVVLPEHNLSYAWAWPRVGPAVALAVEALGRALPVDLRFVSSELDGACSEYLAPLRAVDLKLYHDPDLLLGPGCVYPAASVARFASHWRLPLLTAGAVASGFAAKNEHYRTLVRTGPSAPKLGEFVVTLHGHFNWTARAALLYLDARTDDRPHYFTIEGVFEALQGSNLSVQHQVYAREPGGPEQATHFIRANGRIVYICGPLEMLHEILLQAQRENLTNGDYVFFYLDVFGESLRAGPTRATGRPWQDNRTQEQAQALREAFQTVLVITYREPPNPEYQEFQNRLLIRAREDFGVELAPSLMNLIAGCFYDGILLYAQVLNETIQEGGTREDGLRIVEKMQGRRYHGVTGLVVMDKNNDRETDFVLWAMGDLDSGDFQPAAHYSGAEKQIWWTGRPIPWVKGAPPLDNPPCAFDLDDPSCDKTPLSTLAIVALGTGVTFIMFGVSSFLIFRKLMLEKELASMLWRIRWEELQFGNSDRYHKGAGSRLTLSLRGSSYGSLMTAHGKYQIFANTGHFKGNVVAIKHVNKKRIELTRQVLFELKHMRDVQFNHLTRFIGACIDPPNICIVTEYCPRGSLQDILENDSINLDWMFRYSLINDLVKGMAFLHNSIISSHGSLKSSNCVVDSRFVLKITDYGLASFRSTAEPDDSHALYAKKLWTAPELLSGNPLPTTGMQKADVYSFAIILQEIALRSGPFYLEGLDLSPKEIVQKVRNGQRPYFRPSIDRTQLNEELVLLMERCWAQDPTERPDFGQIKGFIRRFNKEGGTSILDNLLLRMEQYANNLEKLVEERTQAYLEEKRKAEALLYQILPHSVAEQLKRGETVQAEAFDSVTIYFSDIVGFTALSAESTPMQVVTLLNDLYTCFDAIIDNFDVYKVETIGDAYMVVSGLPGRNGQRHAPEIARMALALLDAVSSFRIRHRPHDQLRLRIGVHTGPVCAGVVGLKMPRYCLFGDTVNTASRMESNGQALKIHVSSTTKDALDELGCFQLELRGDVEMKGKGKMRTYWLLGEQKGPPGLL
Description: Primary hematopoietic progenitor cells were isolated from mouse fetal livers of E13.5 embryos (C57B1/6) or from femurs and tibias of C57B1/6 mice using the EasySep negative selection mouse hematopoietic progenitor enrichment kit (Stem Cell Technologies, Vancouver, BC). The progenitor cells were then expanded for two days in serum free expansion media containing 50% RPMI using standard techniques to generate megakaryocytes (Huang et al., J. Clin. Invest., 117(12):3890-9 (2007) and Muntean and Crispino, Blood, 106(4):1223-31 (2005)). The purity of the megakaryocytes was assessed using acetylcholinesterase (AchE) staining using standard protocols and FACS with CD41 (Emfret Analytics).
The following was performed to determine if GC-B present on megakaryocytes is functional and responsive to CNP. Megakaryocytes were treated with either CNP or a single residue mutant CNP designated Lbab for 30 minutes at 37° C. with 5% CO2 in IMDM media supplemented with 1% Nutridoma, penicillin, streptomycin, L-glutamine, and recombinant TPO. The Lbab polypeptide (FIG. 2) is described elsewhere (Yoder et al., Peptides, 29(9):1575-81 (2008)).
After the incubation, the cells were lysed, and the amount of cGMP was measured using a BIOTRAK cGMP enzyme immunoassay system Kit (GE Healthcare Bio-Sciences Corp.).

platelets [4] = experiment: Platelet adhesion to collagen; format: cell-based, human or C57B1/6 mice; settings: for number of platelets adhered to collagen: n=5; for platelet adhesion to collagen (in words): FIG. 7; for pseudopodia formation of platelets adhered to collagen: light microscopy
Method: (§3) The role of CNP on platelet aggregation and platelet adhesion to fibrinogen, fibronectin, and collagen were assessed. Human platelets or platelets from C57B1/6 mice were isolated and treated with either CNP or the Lbab polypeptide for 30 minutes at 37° C. with 5% CO2. Following treatment, the platelets were gently added to cover slips pre-blocked with 1% BSA and pre-coated with fibrinogen, fibronectin, or collagen (50 μg/mL, CHRONOLOG Corp., Havertown, Pa.). Ca^+2 and Mg^+2 were added to 1 mM and 2 mM, respectively, before incubation at 37° C. for 30 minutes. The platelets were then fixed and permeabilized before staining with TRITC Phalloidin (0.5 μg/mL; Sigma) for an hour. The platelets were then gently washed a couple of times with PBS and mounted in Vectashield mounting medium (Vector laboratories, Burlingame, Calif.) and sealed with nail polish as described elsewhere (Moraes et al., J. Thromb. Haemost., 8(11):2530-41 (2010); and Bougie et al., Blood, 116(16):3033-8 (2010)). Images were acquired from five consecutive fields using a Zeiss Axioscop microscope (Carl Zeiss, Oberkochen, Germany) with a Zeiss 100× oil-immersion lens. The images were analyzed using ImageJ software.
Platelets were isolated and treated with either CNP or the mutant Lbab polypeptide for 30 minutes at 37° C. with 5% CO2. Following treatment, the platelets were gently added to cover slips pre-blocked with 1% BSA and pre-coated with collagen ([…], CHRONOLOG-corporation). Ca^+2 and Mg^+2 were added to 1 mM and 2 mM, respectively, before incubation at 37° C. for 30 minutes. The platelets were then fixed and permeabilized before staining with TRITC Phalloidin (0.5 μg/mL; Sigma) for an hour. The platelets were then gently washed a couple of times with PBS and then mounted in Vectashield mounting medium (Vector laboratories, Burlingame, Calif.) and sealed with nail polish. Images were acquired from five consecutive fields using Zeiss Axioscop microscope (Carl Zeiss, Oberkochen, Germany) with a Zeiss 100× oil-immersion lens and analyzed using ImageJ software.
Cells were placed in Trump's fixative, 4% formaldehyde: 1% glutaraldehyde for 1 hour or longer at 4° C. After two rinses in 0.1 M sodium phosphate buffer (pH 7.2), samples were dehydrated in a graded ethanol series to 100% ethanol at which time they were critical point dried with liquid carbon dioxide. They were then mounted on specimen stubs, sputter-coated with gold-palladium, and examined with a Hitachi S4700 scanning electron microscope.

tubulin [5] = experiment: Immunocytochemistry of tubulin in platelets (cytospin); format: cell-based; settings: human platelets; FIG. 9
Method: as §2
PRP was spun down in a cytospin at 1000 rpm for 2 minutes to obtain slides of mouse/human platelets. These slides were fixed and blocked with 10% normal goat serum and incubated with mouse anti-tubulin antibody at 1:700 (Sigma) in PBS. Goat anti-mouse Alexa Fluor 594 at 1:500 (Molecular Probes) was used to visualize the tubulin. Matched negative controls also were used.

megakaryocytes = experiment: Megakaryocyte colony formation assay (MegaCult-C); format: cell-based, mouse; settings: bone marrow cells, 6 to 8 days; FIG. 4
Method: To determine the effect of CNP on the colony forming ability of megakaryocytes, colony formation assays were conducted using MegaCult®-C (StemCell Tech) as per the manufacturer's protocol. Mice were euthanized, and bone marrow was collected from femurs and tibias by flushing the bones multiple times with IMDM. Once a single cell suspension was achieved, the cells were added to MegaCult®-C medium containing cytokines and collagen. The cell suspension was then dispensed into the chamber slide at the concentration of 20,000 cells/well and incubated at 37° C. with 5% CO2 and >95% humidity for 6 to 8 days. The cells were then dehydrated and fixed with acetone followed by acetylcholinesterase staining. The colonies were scored using a 5× objective, and 10× objective was used to examine colonies in greater detail.

platelets [6] = experiment: cGMP production in washed platelets; format: cell-based, mouse; settings: 30 minutes at 37° C. in Tyrode's buffer with 1 mM Ca+2; FIG. 6
Method: Platelet isolation was adapted from studies described elsewhere (Boylan et al., Blood, 108(3):908-14 (2006); Moraes et al., J. Thromb. Haemost., 8(11):2530-41 (2010); and Bougie et al., Blood, 116(16):3033-8 (2010)). Briefly, C57BL/6 mice were anesthetized with ketamine/xylazine. Blood was obtained from the vena cava and collected into 3.8% sodium citrate. The whole blood was then diluted with equal volumes of Tyrode's buffer containing PGE1 (50 ng/mL), glucose (1 mg/mL), and BSA (2.5 mg/mL) before being spun at 280×g to obtain platelet rich plasma (PRP). The upper […] of the PRP was collected and spun for 10 minutes to collect the platelets. The platelets were then washed with Tyrode's buffer before any analysis was performed. The platelets were counted, visualized by microscopy, and then used for FACS analysis, immunostaining, and western blotting. CD41, CD42D, and GC-B expression was detected by FACS (FIG. 5, middle panel).
The effect of CNP on cGMP production in platelets was studied. Washed platelets were treated with CNP or the mutant Lbab polypeptide for 30 minutes at 37° C. with 5% CO2 in Tyrode's buffer with 1 mM Ca^+2. After the incubation, the cells were lysed, and the amount of cGMP was calculated according to the standard curve that was generated from parallel reactions within the same experiment.

platelets [7] = experiment: Platelet adhesion to fibrinogen; format: cell-based, human or C57B1/6 mice; settings: CNP-treated vs Lbab polypeptide-treated
Method: as §3

platelets [8] = experiment: Platelet adhesion to fibronectin; format: cell-based, human or C57B1/6 mice; settings: CNP-treated vs Lbab polypeptide-treated
Method: as §3

platelets [9] = experiment: Platelet aggregation (lumi-aggregometer); format: cell-based; settings: data not shown
Method: The role of CNP on platelet aggregation and platelet adhesion to fibrinogen, fibronectin, and collagen were assessed. Human platelets or platelets from C57B1/6 mice were isolated and treated with either CNP or the Lbab polypeptide for 30 minutes at 37° C. with 5% CO2. Following treatment, the platelets were gently added to cover slips pre-blocked with 1% BSA and pre-coated with fibrinogen, fibronectin, or collagen (50 μg/mL, CHRONOLOG Corp., Havertown, Pa.). Ca^+2 and Mg^+2 were added to 1 mM and 2 mM, respectively, before incubation at 37° C. for 30 minutes. The platelets were then fixed and permeabilized before staining with TRITC Phalloidin (0.5 μg/mL; Sigma) for an hour. […] The images were analyzed using ImageJ software.
Platelet aggregation was performed at 37° C. in lumi-aggregometer in the presence of luciferin-luciferase to simultaneously measure light transmission and secretion of dense granule-derived ATP. […] Platelet aggregation and secretion was measured in a lumi-aggregometer (Chrono-Log, Havertown, Pa.) for 1 minute following which the polypeptide (CNP or Lbab) was added to the platelets, and aggregation and secretion were measured once again for 2 minutes in order to determine if the polypeptide itself activates the platelets. […] Aggregation and secretion were measured for 15 minutes.

Molecule | tubulin distribution in spreading platelets (tubulin [1]) | actin distribution / function in spreading platelets (actin) | tubulin polymerization (O.D.) (tubulin [2]) | cGMP production by megakaryocytes [3] | number of platelets adhered to collagen (platelets [4]; 500 nM) | number of platelets adhered to collagen (platelets [4]; 1000 nM) | platelet adhesion to collagen (in words) (platelets [4]) | pseudopodia formation of platelets adhered to collagen (platelets [4]) | marginal band formation (tubulin) within platelets (tubulin [5]) | megakaryocyte colony formation (megakaryocytes) | megakaryocyte colony size (megakaryocytes) | cGMP production in platelets (platelets [6]) | filopodia of platelets in the presence of collagen (platelets [4]; electron microscopy, varying concentrations, FIG. 8) | adhesion of platelets to fibrinogen (platelets [7]) | adhesion of platelets to fibronectin (platelets [8]) | platelet aggregation (platelets [9])
CC(=O)O[C@H]1C(=O)[C@@]2(C)[C@H]([C@H](OC(=O)c3ccccc3)[C@]3(O)C[C@H](OC(=O)[C@H](O)[C@@H](NC(=O)c4ccccc4)c4ccccc4)C(C)=C1C3(C)C)[C@]1(OC(C)=O)CO[C@@H]1C[C@@H]2O [Taxol, paclitaxel, reference compound] | inhibits tubulin distribution in spreading platelets | minimal effect on actin distribution | effects on the growth and steady state phases of tubulin polymerization |  |  |  |  |  |  |  |  |  |  |  |  | 
Lbab: single residue mutant CNP (SEQ ID NO:2) with Arg to Gly substitution, used as control polypeptide (GLSKGCFGLKLDGIGSMSGLGC; Mutant CNP; listed as Homo sapiens) [reference compound] | does not demonstrate such an affect |  |  | but not the Lbab polypeptide, stimulated cGMP production | 4536±43 | 4390±24 | near normal platelet adhesion to collagen | normal sprouting of pseudopodia | capable of forming clear marginal bands |  |  |  |  |  |  | 
c-type natriuretic peptide [CNP] | inhibits tubulin distribution in spreading platelets | minimal effect on actin distribution; also recorded: does not influence actin function significantly | has effects on the growth and steady state phases of tubulin polymerization | stimulated a dose-dependent increase in cGMP formation | 2451±39 | 1712±20 | attenuated platelet adhesion to collagen | abnormal pseudopodia formation | decreased marginal band formation | inhibited colony formation | significantly affected colony size | did not affect cGMP levels | aberrant filopodia | no significant difference | no significant difference | unaffected
